From US8097650B2, “Method of treating a condition associated with phosphorylation of TASK-1” (The Trustees of Columbia University In The City of New York, priority 2005, dated 2012)

What was measured:
human TASK-1 S358A = test: Human TASK-1 S358A mutant current in CHO cells; format: cell-based; conditions: Tyrode's pH 8, ramp
From the text: FIGS. 24A-24B. Mutations in human TASK-1 remove the sensitivity to C-PAF and PMA when the channel is expressed in CHO cells. Two human TASK-1 (hTASK-1) mutants in which either serine-358 was converted to alanine (S358A) or threonine-383 was converted to alanine (T383A) were generated and separately expressed in CHO cells. The C-PAF-sensitive (24A) and PMA-sensitive currents (24B) were obtained in Tyrode's at pH 8 using a ramp protocol in […] configuration, essentially as described in FIG. 15. […] However, the S358A channel was not inhibited in the presence of C-PAF (24A) and the T383A channel was not inhibited by PMA (24B).

quiescent myocytes = test: Spontaneous activity in quiescent mouse ventricular myocytes (current clamp); format: cell-based; conditions: C-PAF 185 nM
Description: Adult mice, 2-3 months old, were anesthetized with ketamine/xylazine and their hearts were removed according to protocols approved by the Columbia University-IACUC. Experiments were performed on single rod-shaped, quiescent ventricular myocytes dissociated using a standard retrograde collagenase perfusion (Kuznetsov V et al. (1995) Circ Res 76: 40-52) from hearts of mice that were either wild-type (WT), or PAFR knockouts (KO). Both WT and KO mice were bred on a C57/B16 background. The derivation of the KO mice has been described previously (Hoffman, B F et al.(1996) J Cardiovasc Electrophysiol 7:120-133).
Prior to electrophysiological measurements, cells were placed into the perfusion chamber and superfused at room temperature with Tyrode's buffer (in mM: NaCl, 140; KCl, 5.4; CaCl2 1; MgCl2, Hepes, 5; Glucose, 10; pH 7.4). The whole-cell patch clamp technique was used with pipettes having resistances of 1.5-3 MΩ (intracellular solution, in mM: aspartic acid, 130; KOH, 146; NaCl, 10; CaCl2, 2; EGTA, 5; Hepes, 10; MgATP, 2; pH 7.2). Solutions of C-PAF, the PAFR antagonist, CV-6209 (Biomol) and the PKC inhibitor, bisindolylmaleimide I (BIM I; Calbiochem) were prepared in water and diluted in Tyrode's before use. […] A custom-made fast perfusion device was used to exchange the solution around the cell within 1 s (DiFrancesco et al. (1986) J Physiol 377: 61-88).
Current and voltage protocols were generated using Clampex 7.0 software applied by means of an Axopatch 200B amplifier and a Digidata 1200 interface (Axon Instruments). During voltage clamp, steady state current traces were acquired at 500 Hz and final filtered at 10 Hz. During current clamp, membrane voltage was acquired at 5 KHz and filtered at 1 KHz. Ramp clamps were conducted by imposing a voltage ramp (14 mV/s) at a 500 Hz acquisition rate with 1 kHz filtering. Data were analyzed using pCLAMP 8.0 (Axon) and Origin 6.0 (Microcal) and are presented as mean±SEM. Steady-state current was determined by computer calculation of average current over a time period of at least 5 s. In all experiments, the n value indicates the number of myocytes studied, and represents pooled data from at least 2 (voltage clamp) or 3 (current clamp) animals. Student's t-test, one-way ANOVA and χ^2 tests were used; a value of p<0.05 was considered statistically significant. Records have been corrected for the junction potential, which was measured to be 9.8 mV.

hTASK-1 = molecular target: T1, hTASK-1 (Homo sapiens, UniProt O14649); test: hTASK-1 current in CHO cells (ramp clamp, pH 8); format: cell-based; conditions: Tyrode's pH 8; read-out: EC50 for activation of TASK-1 current
T1 construct: expressed in transfected cells; host or cells: CHO cells
Description: FIG. 21. CHO cells (hTREK-1, hTASK-1) or HEK cells (mTRAAK) were co-transfected with plasmids encoding one of the two pore domain channels and GFP using the GeneJammer reagent. After 48-60 h, the expressed current was measured using a ramp protocol while the cells were perfused with regular Tyrode's solution containing varying concentrations of ONO-RS-082 (range of concentration from 10 nM to 500 μM as noted in FIG. 21) until a steady state was reached. Each cell was exposed to only one concentration of drug. Panel A: TREK-1 current was determined using a ramp clamp, and the percent increase induced by ONO-RS-082 was measured at the most positive imposed voltage (n≧5). The EC50 for activation was around 3 μM and the basal and ONO-activated current densities are noted. Panel B: TASK-1 current was determined using a ramp clamp in Tyrode's solution at pH=8 and the percent increase induced by ONO-RS-082 was measured at the most positive imposed voltage (n≧4). The EC50 was around 8 μM and the basal and ONO-activated current densities are noted. Panel C: TRAAK current was determined using a ramp clamp, and the percent increase induced by ONO-RS-082 was measured at the most positive imposed voltage (n≧4). The EC50 was around 0.9 μM and the basal and ONO-activated current densities are noted.

atrial fibrillation = test: Peri-operative atrial fibrillation dog model; format: in vivo
Description: FIG. 29. […] Peri-operative AF was induced in a dog three days after a right atriotomy by brief, rapid pacing. Routinely, this procedure results in AF that continues for at least 30 min and is only stopped by electrical cardioversion. Panel A depicts an EKG trace of the animal just prior to the induction of AF. This run of AF continued for 30 min and the animal was shocked into a normal sinus rhythm (NSR). After 15 min, a second run of AF was induced and a recording of the EKG obtained during this period of AF is shown in Panel B. 20 min later, ONO-RS-082 (0.7 mg/kg) was infused over 2 min. The heart rate slowed within 1 min of the administration of the drug and the EKG normalized within 5 min and persisted in NSR for over an hour at which point the experiment was terminated (Panel C).
Peri-operative AF was induced in a dog three days after a right atriotomy by brief, rapid pacing. Routinely, this procedure results in AF that continues for at least 30 min and is only stopped by electrical cardioversion. Panel A of FIG. 29 depicts an EKG trace of the animal just prior to the induction of AF. This run of AF continued for 30 min and the animal was shocked into a normal sinus rhythm (NSR). After 15 min, a second run of AF was induced and a recording of the EKG obtained during this period of AF is shown in Panel B. 20 min later, ONO-RS-082 (0.7 mg/kg) was infused over 2 min. Following administration of the drug, the heart rate slowed within 1 min of the administration of the drug and the EKG normalized within 5 min and persisted in NSR for over an hour at which point the experiment was terminated (FIG. 29, Panel C).

T1 sequence (O14649 whole entry): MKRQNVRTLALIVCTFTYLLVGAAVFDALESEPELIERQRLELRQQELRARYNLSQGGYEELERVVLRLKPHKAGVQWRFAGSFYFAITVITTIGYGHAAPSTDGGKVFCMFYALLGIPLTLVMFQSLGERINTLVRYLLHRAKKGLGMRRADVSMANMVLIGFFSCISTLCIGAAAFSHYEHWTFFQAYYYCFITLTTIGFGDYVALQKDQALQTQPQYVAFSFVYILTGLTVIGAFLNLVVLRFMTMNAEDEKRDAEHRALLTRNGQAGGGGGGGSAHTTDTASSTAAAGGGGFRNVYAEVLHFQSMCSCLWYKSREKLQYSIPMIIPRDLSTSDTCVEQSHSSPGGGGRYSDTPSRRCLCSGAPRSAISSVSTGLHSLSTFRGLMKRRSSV

Row | EC50 (hTASK-1) [µM] | SMILES | inhibition of S358A channel (human TASK-1 S358A) | PAFR KO myocytes with no response (quiescent myocytes) | quiescent WT myocytes sensitive to C-PAF superfusion (quiescent myocytes) | initial delay of the effect (quiescent myocytes; quiescent WT myocytes) [s] | effect on atrial fibrillation (atrial fibrillation; 0.7 mg/kg) | persistence in normal sinus rhythm (atrial fibrillation; 0.7 mg/kg infused over 2 min) | time to normalization of EKG (atrial fibrillation; 0.7 mg/kg infused over 2 min) [min] | time to slowing of heart rate after administration (atrial fibrillation; 0.7 mg/kg infused over 2 min) [min]
1 |  | CCCCCCCCCCCCCCCCOC[C@H](COP(=O)([O-])OCC[N+](C)(C)C)OC(=O)NC [C-PAF, carbamyl-platelet-activating factor] | not inhibited | 7 of 9 | 11 of 11 | 96 ± 11 |  |  |  | 
2 | ~8 | CCCCCc1ccc(C=CC(=O)Nc2cc(Cl)ccc2C(=O)O)cc1 [ONO-RS-082] |  |  |  |  | halts atrial fibrillation | over an hour | ≤ 5 | ≤ 1
